Results taken from the supplement of paper PMC11451515.

Tested on: P12-Ichikawa
Assay: cell viability relative to DMSO control; higher = less cytotoxic
Settings: 48 h
Procedure, shortened: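 Viability values are per-plate percentages of DMSO wells, with background from cell-free wells. Library compounds in DMSO were pin-dosed, in an 11-point threefold series from 47 μM to 0.79 nM, onto NOMO1 or SEM (500 cells/well) or P12-Ichikawa (1000 cells/well) leukemia cells in 1536-well plates (5 μl). Those cells had been adapted for at least four passages in each medium, and CellTiter-Glo One luminescence was read after 48 h at 37°C.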

[1] = HPLM + 10% dialyzed FBS, 0.000781 µM
[2] = HPLM + 10% dialyzed FBS, 0.00234 µM
[3] = HPLM + 10% dialyzed FBS, 0.00702 µM
[4] = HPLM + 10% dialyzed FBS, 0.0211 µM
[5] = HPLM + 10% dialyzed FBS, 0.0632 µM
[6] = HPLM + 10% dialyzed FBS, 0.19 µM
[7] = HPLM + 10% dialyzed FBS, 0.569 µM
[8] = HPLM + 10% dialyzed FBS, 1.71 µM
[9] = HPLM + 10% dialyzed FBS, 5.12 µM
[10] = HPLM + 10% dialyzed FBS, 15.4 µM
[11] = HPLM + 10% dialyzed FBS, 46.1 µM
[12] = RPMI 5 mM glucose + 10% FBS, 0.000781 µM
[13] = RPMI 5 mM glucose + 10% FBS, 0.00234 µM
[14] = RPMI 5 mM glucose + 10% FBS, 0.00702 µM
[15] = RPMI 5 mM glucose + 10% FBS, 0.0211 µM
[16] = RPMI 5 mM glucose + 10% FBS, 0.0632 µM
[17] = RPMI 5 mM glucose + 10% FBS, 0.19 µM
[18] = RPMI 5 mM glucose + 10% FBS, 0.569 µM
[19] = RPMI 5 mM glucose + 10% FBS, 1.71 µM
[20] = RPMI 5 mM glucose + 10% FBS, 5.12 µM
[21] = RPMI 5 mM glucose + 10% FBS, 15.4 µM
[22] = RPMI 5 mM glucose + 10% FBS, 46.1 µM
[23] = RPMI 5 mM glucose + 10% dialyzed FBS, 0.000781 µM
[24] = RPMI 5 mM glucose + 10% dialyzed FBS, 0.00234 µM
[25] = RPMI 5 mM glucose + 10% dialyzed FBS, 0.00702 µM
[26] = RPMI 5 mM glucose + 10% dialyzed FBS, 0.0211 µM
[27] = RPMI 5 mM glucose + 10% dialyzed FBS, 0.0632 µM
[28] = RPMI 5 mM glucose + 10% dialyzed FBS, 0.19 µM
[29] = RPMI 5 mM glucose + 10% dialyzed FBS, 0.569 µM
[30] = RPMI 5 mM glucose + 10% dialyzed FBS, 1.71 µM
[31] = RPMI 5 mM glucose + 10% dialyzed FBS, 5.12 µM
[32] = RPMI 5 mM glucose + 10% dialyzed FBS, 15.4 µM
[33] = RPMI 5 mM glucose + 10% dialyzed FBS, 46.1 µM

SMILES | cell viability [1] [%] | cell viability [2] [%] | cell viability [3] [%] | cell viability [4] [%] | cell viability [5] [%] | cell viability [6] [%] | cell viability [7] [%] | cell viability [8] [%] | cell viability [9] [%] | cell viability [10] [%] | cell viability [11] [%] | cell viability [12] [%] | cell viability [13] [%] | cell viability [14] [%] | cell viability [15] [%] | cell viability [16] [%] | cell viability [17] [%] | cell viability [18] [%] | cell viability [19] [%] | cell viability [20] [%] | cell viability [21] [%] | cell viability [22] [%] | cell viability [23] [%] | cell viability [24] [%] | cell viability [25] [%] | cell viability [26] [%] | cell viability [27] [%] | cell viability [28] [%] | cell viability [29] [%] | cell viability [30] [%] | cell viability [31] [%] | cell viability [32] [%] | cell viability [33] [%]
O=C(O)CCNC(=O)c1ccc(/N=N/c2ccc(O)c(C(=O)O)c2)cc1 | 115 | 116 | 114 | 114 | 110 | 120 | 109 | 115 | 112 | 110 | 113 | – | – | – | – | – | – | – | – | – | – | – | – | – | – | – | – | – | – | – | – | – | –
CC(C)c1cc(C(C)C)c(CC(=O)N[S+](=O)([O-])Oc2c(C(C)C)cccc2C(C)C)c(C(C)C)c1 | 103 | 106 | 103 | 106 | 103 | 104 | 104 | 103 | 101 | 97 | 89.7 | 105 | 102 | 104 | 96.8 | 102 | 96.9 | 109 | 96.8 | 102 | 97.6 | 76.9 | 99.5 | 108 | 105 | 105 | 110 | 101 | 98.3 | 90.1 | 99.1 | 89.2 | 87
CN1\C=N/C2=CC=C(NC3=CC(=CC=C3C)NC(=O)C4=CC(=CC=C4)C(C)(C)C#N)C=C2C1=O | 97.1 | 96.9 | 101 | 97.8 | 101 | 94.6 | 87 | 87.4 | 68.5 | 69.3 | 63.2 | 90.4 | 98.7 | 99 | 95 | 96.7 | 93 | 83.6 | 81.3 | 59.6 | 58.4 | 44.4 | 97.5 | 104 | 94 | 102 | 99.5 | 98.7 | 93.3 | 84.8 | 73.4 | 64.1 | 48.1
CN(C)CC(C)(C)CNc1nn2c(-c3ccccc3)nnc2cc1C1CCC1 | 106 | 103 | 110 | 111 | 112 | 110 | 94.9 | 111 | 84.2 | 33.9 | 6.88 | 108 | 111 | 104 | 102 | 109 | 106 | 87.8 | 105 | 70.3 | 46.7 | 6.32 | 105 | 111 | 107 | 111 | 113 | 115 | 98.3 | 113 | 88.1 | 76.9 | 13.6
C=C[C@H]1CN2CCC1C[C@@H]2C(O)c1ccnc2ccc(OC)cc12 (some centres not stated) | 112 | 131 | 117 | 119 | 127 | 122 | 123 | 133 | 123 | 122 | 103 | – | – | – | – | – | – | – | – | – | – | – | 125 | 121 | 120 | 128 | 145 | 128 | 136 | 133 | 123 | 135 | 124
COC1=C(OCCCN2CCOCC2)C=CC\3=C1/N=C(/NC(=O)C4=CN=C(N)N=C4)N5CC/N=C35 | 110 | 97.6 | 99.5 | 100 | 96 | 85.8 | 78.2 | 73.7 | 70.1 | 60.4 | 60.8 | 87.2 | 95.4 | 90.2 | 91.2 | 86.9 | 74.7 | 62.5 | 56.8 | 56.3 | 47.1 | 42 | 87.8 | 95.3 | 98.3 | 99.1 | 87.3 | 82.5 | 67.4 | 62.6 | 58.7 | 49.1 | 45.8
NC[C@H]1O[C@H](O[C@@H]2[C@H](O)[C@@H](O[C@H]3O[C@H](CO)[C@@H](O)[C@H](N)[C@H]3O)[C@H](N)C[C@@H]2N)[C@H](O)[C@@H](O)[C@@H]1O | 126 | 124 | 124 | 107 | 120 | 121 | 117 | 121 | 112 | 104 | 107 | – | – | – | – | – | – | – | – | – | – | – | – | – | – | – | – | – | – | – | – | – | –
COc1cc2c(cc1OC)CN(CCc1ccc(NC(=O)c3cc(OC)c(OC)cc3NC(=O)c3cnc4ccccc4c3)cc1)CC2 | 114 | 122 | 115 | 114 | 110 | 113 | 111 | 102 | 65.6 | 62.8 | 44.4 | 124 | 112 | 112 | 120 | 112 | 118 | 105 | 92.7 | 64 | 54.1 | 47.5 | 114 | 106 | 116 | 114 | 113 | 114 | 99.4 | 92 | 56.4 | 56.6 | 46.5
CC(=O)Oc1ccccc1C(=O)Nc1ncc([N+](=O)[O-])s1 | 102 | 103 | 106 | 107 | 104 | 104 | 110 | 109 | 95.9 | 97.3 | 36.5 | 92.8 | 102 | 95.5 | 98.3 | 96 | 104 | 98.5 | 98.4 | 79.9 | 83.5 | 75.6 | 95.7 | 97.5 | 100 | 95.6 | 94.2 | 95.4 | 96.3 | 93.5 | 82 | 85.2 | 79.9
